Measurements published in ChEMBL document CHEMBL5291721, “A preclinical secondary pharmacology resource illuminates target-adverse drug reaction associations of marketed drugs” (Nat Commun, 2023).

Key:
[1] = biological target: Glutamate receptor ionotropic, NMDA 1 (Rattus norvegicus, UniProt P35439)
[2] = biological target: T1, Alpha-1A adrenergic receptor (Homo sapiens, UniProt P35348)
T1 sequence (P35348 whole entry): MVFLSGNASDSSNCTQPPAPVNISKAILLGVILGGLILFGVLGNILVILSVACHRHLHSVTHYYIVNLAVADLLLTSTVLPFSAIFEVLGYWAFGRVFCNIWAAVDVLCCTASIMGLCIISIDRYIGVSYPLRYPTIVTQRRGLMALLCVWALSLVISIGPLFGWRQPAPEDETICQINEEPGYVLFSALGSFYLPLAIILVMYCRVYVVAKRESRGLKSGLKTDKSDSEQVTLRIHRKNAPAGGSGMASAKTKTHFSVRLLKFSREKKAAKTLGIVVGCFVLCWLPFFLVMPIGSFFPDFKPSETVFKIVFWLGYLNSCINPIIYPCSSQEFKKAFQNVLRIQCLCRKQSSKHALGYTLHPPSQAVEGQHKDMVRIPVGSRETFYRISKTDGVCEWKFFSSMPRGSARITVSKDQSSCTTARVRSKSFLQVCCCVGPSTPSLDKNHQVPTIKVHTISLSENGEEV

[3] = biological target: T2, 5-hydroxytryptamine receptor 1A (Homo sapiens, UniProt P08908); assay type: functional, cell-based
T2 sequence (P08908 whole entry): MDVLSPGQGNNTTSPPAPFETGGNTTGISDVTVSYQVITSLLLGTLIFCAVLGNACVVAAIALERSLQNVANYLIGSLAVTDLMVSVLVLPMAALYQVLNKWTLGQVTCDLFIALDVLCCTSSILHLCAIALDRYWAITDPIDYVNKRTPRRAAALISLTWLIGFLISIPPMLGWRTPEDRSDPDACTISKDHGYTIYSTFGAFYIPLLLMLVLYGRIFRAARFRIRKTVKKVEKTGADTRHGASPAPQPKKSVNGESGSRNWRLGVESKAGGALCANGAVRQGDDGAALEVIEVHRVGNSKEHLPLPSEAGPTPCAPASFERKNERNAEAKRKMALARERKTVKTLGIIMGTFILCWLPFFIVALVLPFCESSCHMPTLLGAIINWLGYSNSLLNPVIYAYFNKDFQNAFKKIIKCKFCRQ

[4] = biological target: Sodium-dependent serotonin transporter (Homo sapiens, UniProt P31645)
Chain of Sodium-dependent serotonin transporter (P31645 whole entry): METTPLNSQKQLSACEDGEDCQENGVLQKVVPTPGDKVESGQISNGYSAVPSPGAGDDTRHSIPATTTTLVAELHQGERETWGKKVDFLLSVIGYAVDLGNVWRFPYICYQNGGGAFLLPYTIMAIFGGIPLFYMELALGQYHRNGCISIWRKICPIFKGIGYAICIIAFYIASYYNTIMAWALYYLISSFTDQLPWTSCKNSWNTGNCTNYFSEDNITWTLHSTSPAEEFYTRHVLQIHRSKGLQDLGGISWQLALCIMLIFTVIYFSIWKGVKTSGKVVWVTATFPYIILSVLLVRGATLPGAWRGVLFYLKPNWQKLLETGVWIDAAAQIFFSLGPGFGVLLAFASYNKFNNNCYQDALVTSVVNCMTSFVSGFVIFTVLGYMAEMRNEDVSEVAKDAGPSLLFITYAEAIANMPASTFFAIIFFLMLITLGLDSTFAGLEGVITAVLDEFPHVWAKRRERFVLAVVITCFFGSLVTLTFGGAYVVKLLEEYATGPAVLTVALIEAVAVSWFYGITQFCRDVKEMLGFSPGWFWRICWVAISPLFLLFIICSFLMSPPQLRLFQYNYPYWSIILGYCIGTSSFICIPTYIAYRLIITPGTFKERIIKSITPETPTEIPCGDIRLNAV

[5] = biological target: T1, Alpha-1A adrenergic receptor; assay type: functional, cell-based
Progesterone receptor = biological target: T3, Progesterone receptor (Homo sapiens, UniProt P06401)
T3 sequence (P06401 whole entry): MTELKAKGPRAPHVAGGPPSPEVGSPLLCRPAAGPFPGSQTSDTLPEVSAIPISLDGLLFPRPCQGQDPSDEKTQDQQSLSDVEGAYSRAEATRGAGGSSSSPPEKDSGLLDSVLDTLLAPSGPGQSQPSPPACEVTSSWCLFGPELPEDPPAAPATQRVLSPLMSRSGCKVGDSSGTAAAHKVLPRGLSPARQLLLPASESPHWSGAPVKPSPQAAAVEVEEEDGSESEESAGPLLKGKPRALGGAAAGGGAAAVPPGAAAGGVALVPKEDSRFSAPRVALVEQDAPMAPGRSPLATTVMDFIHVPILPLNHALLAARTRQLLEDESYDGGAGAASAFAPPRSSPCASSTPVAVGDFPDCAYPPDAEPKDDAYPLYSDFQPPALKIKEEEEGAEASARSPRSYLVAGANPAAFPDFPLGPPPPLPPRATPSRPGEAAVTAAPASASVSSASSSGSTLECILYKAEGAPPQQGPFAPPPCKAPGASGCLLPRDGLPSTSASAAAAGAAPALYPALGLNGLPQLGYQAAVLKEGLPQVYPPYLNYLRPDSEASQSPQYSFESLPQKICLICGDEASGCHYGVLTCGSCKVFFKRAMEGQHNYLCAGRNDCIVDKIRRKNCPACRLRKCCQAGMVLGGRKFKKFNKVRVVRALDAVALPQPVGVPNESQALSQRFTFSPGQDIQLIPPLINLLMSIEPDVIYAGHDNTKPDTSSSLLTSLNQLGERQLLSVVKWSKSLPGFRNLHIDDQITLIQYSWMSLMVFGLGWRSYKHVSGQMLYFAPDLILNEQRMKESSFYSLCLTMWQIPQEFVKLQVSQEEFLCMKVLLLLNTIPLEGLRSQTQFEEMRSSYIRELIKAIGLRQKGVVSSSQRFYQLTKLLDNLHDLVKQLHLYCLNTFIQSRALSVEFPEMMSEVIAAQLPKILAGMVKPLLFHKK

[6] = biological target: 5-hydroxytryptamine receptor 2A (Homo sapiens, UniProt P28223); assay type: functional, cell-based
Chain of 5-hydroxytryptamine receptor 2A (P28223 whole entry): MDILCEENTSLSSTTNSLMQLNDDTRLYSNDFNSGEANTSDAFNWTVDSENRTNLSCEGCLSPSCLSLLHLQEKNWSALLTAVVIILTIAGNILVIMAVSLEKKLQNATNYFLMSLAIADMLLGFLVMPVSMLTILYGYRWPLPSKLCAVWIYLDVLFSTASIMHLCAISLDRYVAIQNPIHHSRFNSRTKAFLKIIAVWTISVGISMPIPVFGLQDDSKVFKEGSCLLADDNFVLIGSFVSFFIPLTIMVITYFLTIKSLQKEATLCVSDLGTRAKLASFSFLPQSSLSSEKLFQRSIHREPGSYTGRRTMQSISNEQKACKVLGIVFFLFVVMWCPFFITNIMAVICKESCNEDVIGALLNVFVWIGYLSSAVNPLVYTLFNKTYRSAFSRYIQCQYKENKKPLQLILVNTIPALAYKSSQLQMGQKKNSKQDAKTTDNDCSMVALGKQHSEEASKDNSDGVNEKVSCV

[7] = biological target: cGMP-inhibited 3',5'-cyclic phosphodiesterase 3A (Homo sapiens, UniProt Q14432); assay type: functional
Chain of cGMP-inhibited 3',5'-cyclic phosphodiesterase 3A (Q14432 whole entry): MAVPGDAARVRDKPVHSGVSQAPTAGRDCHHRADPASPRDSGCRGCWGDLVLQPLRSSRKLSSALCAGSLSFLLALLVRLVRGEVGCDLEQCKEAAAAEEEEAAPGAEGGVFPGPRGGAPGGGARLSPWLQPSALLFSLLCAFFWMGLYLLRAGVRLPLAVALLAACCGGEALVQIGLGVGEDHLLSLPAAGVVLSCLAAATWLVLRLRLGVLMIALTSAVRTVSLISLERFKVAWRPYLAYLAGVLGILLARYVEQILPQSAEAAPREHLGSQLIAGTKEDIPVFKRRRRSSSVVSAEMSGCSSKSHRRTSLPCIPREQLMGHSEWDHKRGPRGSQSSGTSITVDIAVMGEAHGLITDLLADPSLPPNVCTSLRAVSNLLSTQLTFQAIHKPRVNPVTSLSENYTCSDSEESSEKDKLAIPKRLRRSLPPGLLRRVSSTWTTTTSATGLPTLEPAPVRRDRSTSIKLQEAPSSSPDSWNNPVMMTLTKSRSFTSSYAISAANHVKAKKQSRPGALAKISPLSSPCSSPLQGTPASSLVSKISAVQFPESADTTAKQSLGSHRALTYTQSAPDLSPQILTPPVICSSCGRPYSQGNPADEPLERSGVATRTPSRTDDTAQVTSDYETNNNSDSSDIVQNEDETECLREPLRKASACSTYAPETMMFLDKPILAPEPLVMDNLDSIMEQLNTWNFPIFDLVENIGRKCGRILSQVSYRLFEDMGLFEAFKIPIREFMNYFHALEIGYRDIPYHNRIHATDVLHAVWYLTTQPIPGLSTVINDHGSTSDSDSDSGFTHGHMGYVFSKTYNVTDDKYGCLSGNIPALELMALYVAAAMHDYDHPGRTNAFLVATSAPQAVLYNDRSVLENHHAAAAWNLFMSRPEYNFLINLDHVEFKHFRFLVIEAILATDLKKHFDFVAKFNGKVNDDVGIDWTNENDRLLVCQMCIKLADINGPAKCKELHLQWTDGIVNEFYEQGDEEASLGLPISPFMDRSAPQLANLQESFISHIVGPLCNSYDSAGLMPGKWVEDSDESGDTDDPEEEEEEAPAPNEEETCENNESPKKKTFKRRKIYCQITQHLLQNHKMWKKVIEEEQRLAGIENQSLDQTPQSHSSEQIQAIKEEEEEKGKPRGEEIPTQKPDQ

Adenosine receptor A3 = biological target: T4, Adenosine receptor A3 (Homo sapiens, UniProt P0DMS8)
T4 sequence (P0DMS8 whole entry): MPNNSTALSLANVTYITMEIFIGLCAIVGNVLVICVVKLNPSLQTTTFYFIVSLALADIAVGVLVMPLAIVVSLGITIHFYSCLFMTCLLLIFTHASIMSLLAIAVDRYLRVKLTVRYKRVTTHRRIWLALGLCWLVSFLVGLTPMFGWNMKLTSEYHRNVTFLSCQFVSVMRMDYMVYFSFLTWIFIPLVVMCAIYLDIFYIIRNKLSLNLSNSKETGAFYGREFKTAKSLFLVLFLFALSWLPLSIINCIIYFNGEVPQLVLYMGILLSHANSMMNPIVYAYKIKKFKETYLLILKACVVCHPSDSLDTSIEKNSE
Also: assay procedure not described here.

Row | Compound | AC50 [1] | AC50 [2] | AC50 [3] | AC50 [4] | AC50 [5] | AC50 (Progesterone receptor) | AC50 [6] | AC50 [7] | AC50 (Adenosine receptor A3)
1 | O=C1Nc2ccc(Cl)cc2[C@@](C#CC2CC2)(C(F)(F)F)O1 [EFAVIRENZ] | > 10 µM | > 10 µM | > 10 µM | > 30 µM | – | – | – | – | –
2 | Clc1ccc(C(c2ccccc2Cl)C(Cl)Cl)cc1 (stereo not drawn) [MITOTANE] | > 10 µM | > 10 µM | > 10 µM | – | – | – | – | – | –
3 | CCCN1C[C@H](CSC)C[C@@H]2c3cccc4[nH]cc(c34)C[C@H]21 [PERGOLIDE] | > 10 µM | 1.78 µM | – | – | – | – | – | – | –
4 | COCCCN1CCC(NC(=O)c2cc(Cl)c(N)c3c2OCC3)CC1 [PRUCALOPRIDE] | – | – | > 30 µM | > 30 µM | > 30 µM | > 30 µM | > 30 µM | > 30 µM | –
5 | Cc1cn([C@H]2C[C@H](N=[N+]=[N-])[C@@H](CO)O2)c(=O)[nH]c1=O [ZIDOVUDINE] | > 10 µM | > 10 µM | > 10 µM | – | > 30 µM | > 30 µM | – | > 30 µM | > 30 µM
6 | Cc1cn([C@H]2C=C[C@@H](CO)O2)c(=O)[nH]c1=O [STAVUDINE] | > 10 µM | 29.9 µM | > 10 µM | – | > 30 µM | > 30 µM | – | > 30 µM | > 30 µM
7 | Cc1cccc(Nc2ccccc2C(=O)O)c1C [MEFENAMIC ACID] | > 10 µM | > 10 µM | > 10 µM | – | > 30 µM | > 30 µM | – | > 30 µM | > 30 µM
8 | O=C(O[C@H]1C[C@H]2CC[C@@H](C1)[N+]21CCCC1)C(O)(c1ccccc1)c1ccccc1 [TROSPIUM] | > 30 µM | – | > 30 µM | > 30 µM | – | – | > 30 µM | – | –
9 | CCOC(=O)[C@H](CCc1ccccc1)N[C@@H](C)C(=O)N1[C@H](C(=O)O)C[C@@H]2CCC[C@@H]21 | > 10 µM | > 10 µM | > 10 µM | – | – | – | – | – | –
10 | CS(=O)(=O)c1ccc(C2=C(c3ccccc3)C(=O)OC2)cc1 [ROFECOXIB] | > 10 µM | > 10 µM | 35 µM | – | > 30 µM | > 30 µM | – | > 30 µM | 18.5 µM
11 | CN(C)CCC(c1ccc(Cl)cc1)c1ccccn1 (stereo not drawn) [CHLORPHENIRAMINE] | > 10 µM | 7.01 µM | > 10 µM | – | – | – | – | – | –
12 | c1cnc(N2CCN(Cc3ccc4c(c3)OCO4)CC2)nc1 [PIRIBEDIL] | – | – | 20 µM | 12 µM | – | – | > 30 µM | – | –
13 | C[C@@H](O)[C@H]1C(=O)N2C(C(=O)O)=C(S[C@@H]3CN[C@H](C(=O)N(C)C)C3)[C@H](C)[C@H]12 [MEROPENEM] | > 10 µM | > 10 µM | > 300 µM | – | – | – | – | – | –
14 | CC[C@H]1[C@@H](O)[C@@H]2[C@H](CC[C@]3(C)[C@@H]([C@H](C)CCC(=O)O)CC[C@@H]23)[C@@]2(C)CC[C@@H](O)C[C@@H]12 [OBETICHOLIC ACID] | > 30 µM | – | – | > 30 µM | > 30 µM | > 30 µM | 11.5 µM | > 30 µM | > 30 µM
15 | CC1=C(C(=O)O)N2C(=O)[C@@H](NC(=O)[C@H](N)c3ccccc3)[C@H]2SC1 [CEPHALEXIN ANHYDROUS] | > 10 µM | 5.78 µM | > 10 µM | – | – | – | – | – | –
16 | C=CCc1ccccc1OCC(O)CNC(C)C (stereo not drawn) [ALPRENOLOL] | > 30 µM | – | 4.8 µM | 11.5 µM | > 0.3 µM | > 0.3 µM | > 30 µM | > 0.3 µM | > 0.3 µM

Row | Compound | AC50 [1] | AC50 [2] | AC50 [3] | AC50 [4] | AC50 [5] | AC50 (Progesterone receptor) | AC50 [6] | AC50 [7] | AC50 (Adenosine receptor A3)
17 | COc1ccc(CC(C)(C)NC[C@H](O)c2cc(O)cc3c2OCC(=O)N3)cc1 [OLODATEROL] | – | – | 29 µM | 0.0608 µM | – | – | 12.8 µM | – | –
18 | CN(C)/N=N/c1[nH]cnc1C(N)=O [DACARBAZINE] | > 10 µM | > 10 µM | > 10 µM | – | – | – | – | – | –
19 | c1ccc([C@H]2CN3CCSC3=N2)cc1 [LEVAMISOLE] | > 30 µM | > 10 µM | > 30 µM | – | – | – | – | – | –
20 | CC[C@H]1OC(=O)[C@H](C)[C@@H](O[C@H]2C[C@@](C)(OC)[C@@H](O)[C@H](C)O2)[C@H](C)[C@@H](O[C@@H]2O[C@H](C)C[C@H](N(C)C)[C@H]2O)[C@](C)(O)C[C@@H](C)CN(C)[C@H](C)[C@@H](O)[C@]1(C)O [AZITHROMYCIN] | > 10 µM | > 10 µM | > 10 µM | – | > 30 µM | > 30 µM | – | > 30 µM | –
21 | CNC1Cc2ccccc2N(C)c2ccccc21 (stereo not drawn) [METAPRAMINE] | – | – | > 30 µM | 14 µM | – | – | 14 µM | – | –
22 | O=P1(NCCCl)OCCCN1CCCl (stereo not drawn) [IFOSFAMIDE] | > 30 µM | > 30 µM | > 30 µM | – | – | – | – | – | –
23 | CC(C)C[C@H]1C(=O)N2CCC[C@H]2[C@]2(O)O[C@](NC(=O)[C@@H]3C=C4c5cccc6[nH]c(Br)c(c56)C[C@H]4N(C)C3)(C(C)C)C(=O)N12 [BROMOCRIPTINE] | > 10 µM | 0.197 µM | 0.17 µM | – | 1.07 µM | > 30 µM | – | > 30 µM | 1.92 µM
24 | O=C(OCC(O)CO)c1ccccc1Nc1ccnc2cc(Cl)ccc12 (stereo not drawn) [GLAFENINE] | – | – | > 30 µM | > 30 µM | > 30 µM | > 30 µM | > 30 µM | > 30 µM | 1.4 µM
25 | CC(=O)NCCCS(=O)(=O)O [ACAMPROSATE] | – | – | > 30 µM | > 30 µM | – | – | > 30 µM | – | –
26 | C[C@]12CCC(=O)C=C1CC[C@@H]1[C@@H]2[C@@H](O)C[C@@]2(C)[C@H]1CC[C@]2(O)C(=O)CO [HYDROCORTISONE] | > 10 µM | > 10 µM | > 10 µM | – | – | – | – | – | –
27 | COc1cc2nc(N(C)CCCNC(=O)C3CCCO3)nc(N)c2cc1OC (stereo not drawn) [ALFUZOSIN] | > 30 µM | – | – | > 30 µM | – | – | > 30 µM | – | –
28 | Cc1ccc(-c2cc(C(F)(F)F)nn2-c2ccc(S(N)(=O)=O)cc2)cc1 [CELECOXIB] | > 10 µM | > 10 µM | > 10 µM | – | – | – | – | – | –
29 | Clc1ccc2nsnc2c1NC1=NCCN1 [TIZANIDINE] | > 10 µM | 3.9 µM | > 10 µM | – | – | – | – | – | –
30 | CCCSc1ccc2nc(NC(=O)OC)[nH]c2c1 [ALBENDAZOLE] | > 10 µM | > 10 µM | > 10 µM | – | – | – | – | – | –
31 | CCC(C)n1ncn(-c2ccc(N3CCN(c4ccc(OCC5COC(Cn6cncn6)(c6ccc(Cl)cc6Cl)O5)cc4)CC3)cc2)c1=O (stereo not drawn) [ITRACONAZOLE] | > 30 µM | > 10 µM | > 30 µM | – | – | – | – | – | –
